Target: PRS (prolyl-tRNA synthetase) protein, PRS portion of EPRS (Homo sapiens (Human), UniProt P07814)
Assay: PRS enzyme activity inhibition experiment ([3H]proline, liquid scintillation)
Assay type: biochemical
Settings: purified PRS protein, 37° C. for 5 to 10 minutes
Method: In order to confirm the biological activities of the compounds prepared in Examples, % inhibition or IC50 values of PRS enzyme ([…]) activities were calculated.
Specifically, the portion corresponding to PRS in cDNA of EPRS was subcloned, and the obtained high-purity PRS protein was purified and used in the experiment. The compounds (1 μM) prepared in Examples were added into the reaction buffer (20 mM KPO4 (pH 7.4), 6 mM MgAc, 5 mM ATP, […] tRNA, 0.5 mM DTT, […][^3H]proline (1 mCi/mL)) and allowed to react at 37° C. for 5 to 10 minutes. The reaction was terminated with 3M paper that was in advance dried by addition of 5% TCA. The radioactivity was measured using a liquid scintillation counter.
% Inhibition and IC50 values of the respective compounds were calculated and analyzed using Microsoft Excel or Sigma Plot 8.0. In Tables 1 to 3, the results are divided into A, B and C according to the range of IC50. The case where the derived IC50 is 100 nM or less is represented by “A”, the case where the IC50 is 100 to 500 nM is represented by “B”, and the case where the IC50 is 500 nM or higher is represented by “C”.

Sequence of PRS (prolyl-tRNA synthetase) protein, PRS portion of EPRS (P07814 1007-1512): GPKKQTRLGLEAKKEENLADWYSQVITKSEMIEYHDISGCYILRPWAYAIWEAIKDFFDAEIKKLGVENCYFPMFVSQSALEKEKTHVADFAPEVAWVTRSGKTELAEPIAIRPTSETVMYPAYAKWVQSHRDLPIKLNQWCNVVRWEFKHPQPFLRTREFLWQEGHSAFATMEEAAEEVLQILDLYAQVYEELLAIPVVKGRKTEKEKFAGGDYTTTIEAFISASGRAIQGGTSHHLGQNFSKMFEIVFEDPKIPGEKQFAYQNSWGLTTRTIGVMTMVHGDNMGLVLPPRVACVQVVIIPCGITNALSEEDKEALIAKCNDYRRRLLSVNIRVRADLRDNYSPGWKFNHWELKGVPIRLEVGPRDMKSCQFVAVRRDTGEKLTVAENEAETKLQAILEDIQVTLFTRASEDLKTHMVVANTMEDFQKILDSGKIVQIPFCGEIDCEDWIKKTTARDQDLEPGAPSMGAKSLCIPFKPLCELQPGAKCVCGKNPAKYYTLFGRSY

IC50 [nM]	Compound
≥ 500	O=[N+]([O-])c1c(Br)ccc2ncn(CCC[C@H]3NCCC[C@@H]3O)c12 [Example 76, (2R,3S)-2-(3-(6-bromo-7-nitro-1H-benzo[d]imidazol-1-yl)propyl)piperidin-3-ol]
100 to 500	O=[N+]([O-])c1ccc2c(ncn2CCC[C@H]2NCCC[C@@H]2O)c1Cl [Example 77, (2R,3S)-2-(3-(4-chloro-5-nitro-1H-benzo[d]imidazol-1-yl)propyl)piperidin-3-ol]
100 to 500	O[C@H]1CCCN[C@@H]1CCCn1cnc2cc(C(F)(F)F)cc(Cl)c21 [Example 78, (2R,3S)-2-(3-(7-chloro-5-(trifluoromethyl)-1H-benzo[d]imidazol-1-yl)propyl)piperidin-3-ol]
≤ 100	O[C@H]1CCCN[C@@H]1CCCn1cnc2cc(Cl)cc(F)c21 [Example 79, (2R,3S)-2-(3-(5-chloro-7-fluoro-1H-benzo[d]imidazol-1-yl)propyl)piperidin-3-ol]
≤ 100	O[C@H]1CCCN[C@@H]1CCCn1cnc2cc(Cl)cc(Cl)c21 [Example 80, (2R,3S)-2-(3-(5,7-dichloro-1H-benzo[d]imidazol-1-yl)propyl)piperidin-3-ol]
≥ 500	O[C@H]1CCCN[C@@H]1CCCn1cnc2cc(Cl)cc(-c3cn[nH]c3)c21 [Example 81, (2R,3S)-2-(3-(5-chloro-7-(1H-pyrazol-4-yl)-1H-benzo[d]imidazol-1-yl)propyl)piperidin-3-ol]
≥ 500	O[C@H]1CCCN[C@@H]1CCCn1cnc2cc(C(F)(F)F)cc(-c3cn[nH]c3)c21 [Example 82, (2R,3S)-2-(3-(7-(1H-pyrazol-4-yl)-5-(trifluoromethyl)-1H-benzo[d]imidazol-1-yl)propyl)piperidin-3-ol]
≤ 100	O[C@H]1CCCN[C@@H]1CCCn1cnc2cc(Cl)cc(-c3cccc(F)c3)c21 [Example 83, (2R,3S)-2-(3-(5-chloro-7-(3-fluorophenyl)-1H-benzo[d]imidazol-1-yl)propyl)piperidin-3-ol]
≥ 500	O[C@H]1CCCN[C@@H]1CCCn1cnc2cc(C(F)(F)F)cc(-c3cccc(F)c3)c21 [Example 84, (2R,3S)-2-(3-(7-(3-fluorophenyl)-5-(trifluoromethyl)-1H-benzo[d]imidazol-1-yl)propyl)piperidin-3-ol]
100 to 500	Cc1ncc(-c2cc(Cl)cc3ncn(CCC[C@H]4NCCC[C@@H]4O)c23)s1 [Example 85, (2R,3S)-2-(3-(5-chloro-7-(2-methylthiazol-5-yl)-1H-benzo[d]imidazol-1-yl)propyl)piperidin-3-ol]
100 to 500	O[C@H]1CCCN[C@@H]1CCCn1cnc2cc(Cl)cc(-c3cccnc3)c21 [Example 86, (2R,3S)-2-(3-(5-chloro-7-(pyridin-3-yl)-1H-benzo[d]imidazol-1-yl)propyl)piperidin-3-ol]
100 to 500	O[C@H]1CCCN[C@@H]1CCCn1cnc2cc(Cl)cc(-c3cncc(F)c3)c21 [Example 87, (2R,3S)-2-(3-(5-chloro-7-(5-fluoropyridin-3-yl)-1H-benzo[d]imidazol-1-yl)propyl)piperidin-3-ol]
≥ 500	Cn1cc(-c2cc(Cl)cc3ncn(CCC[C@H]4NCCC[C@@H]4O)c23)ccc1=O [Example 88, 5-(5-chloro-1-(3-((2R,3S)-3-hydroxypiperidin-2-yl)propyl)-1H-benzo[d]imidazol-7-yl)-1-methylpyridin-2(1H)-one]
≤ 100	O[C@H]1CCCN[C@@H]1CCCn1cnc2cc(Cl)cc(-c3cnn(C(F)F)c3)c21 [Example 89, (2R,3S)-2-(3-(5-chloro-7-(1-(difluoromethyl)-1H-pyrazol-4-yl)-1H-benzo[d]imidazol-1-yl)propyl)piperidin-3-ol]
100 to 500	O[C@H]1CCCN[C@@H]1CCCn1cnc2cc(Cl)cc(-c3ccon3)c21 [Example 90, (2R,3S)-2-(3-(5-chloro-7-(Isoxazol-3-yl)-1H-benzo[d]imidazol-1-yl)propyl)piperidin-3-ol]
≤ 100	O[C@H]1CCCN[C@@H]1CCCn1cnc2cc(Cl)cc(-c3ccsc3)c21 [Example 91, (2R,3S)-2-(3-(5-chloro-7-(thiophen-3-yl)-1H-benzo[d]imidazol-1-yl)propyl)piperidin-3-ol]
100 to 500	Cc1sccc1-c1cc(Cl)cc2ncn(CCC[C@H]3NCCC[C@@H]3O)c12 [Example 92, (2R,3S)-2-(3-(5-chloro-7-(2-methylthiophen-3-yl)-1H-benzo[d]imidazol-1-yl)propyl)piperidin-3-ol]

IC50 [nM]	Compound
≥ 500	Cc1noc(C)c1-c1cc(Cl)cc2ncn(CCC[C@H]3NCCC[C@@H]3O)c12 [Example 93, (2R,3S)-2-(3-(5-chloro-7-(3,5-dimethylisoxazol-4-yl)-1H-benzo[d]imidazol-1-yl)propyl)piperidin-3-ol]
100 to 500	O[C@H]1CCCN[C@@H]1CCCn1cnc2cc(Cl)cc(C3=CCOCC3)c21 [Example 94, (2R,3S)-2-(3-(5-chloro-7-(3,6-dihydro-2H-pyran-4-yl)-1H-benzo[d]imidazol-1-yl)propyl)piperidin-3-ol]
100 to 500	O[C@H]1CCCN[C@@H]1CCCn1cnc2cc(Cl)cc(-c3cnn(CC4OCCO4)c3)c21 [Example 95, (2R,3S)-2-(3-(7-(1-((1,3-dioxolan-2-yl)methyl)-1H-pyrazol-4-yl)-5-chloro-1H-benzo[d]imidazol-1-yl)propyl)piperidin-3-ol]
≥ 500	Cn1cncc1-c1cc(Cl)cc2ncn(CCC[C@H]3NCCC[C@@H]3O)c12 [Example 96, (2R,3S)-2-(3-(5-chloro-7-(1-methyl-1H-imidazol-5-yl)-1H-benzo[d]imidazol-1-yl)propyl)piperidin-3-ol]
≤ 100	Cn1cc(-c2cc(Cl)cc3ncn(CCC[C@H]4NCCC[C@@H]4O)c23)cn1 [Example 97, (2R,3S)-2-(3-(5-chloro-7-(1-methyl-1H-pyrazol-4-yl)-1H-benzo[d]imidazol-1-yl)propyl)piperidin-3-ol]
100 to 500	O[C@H]1CCCN[C@@H]1CCCn1cnc2cccc(N3CCCC3)c21 [Example 98, (2R,3S)-2-(3-(7-(pyrrolidin-1-yl)-1H-benzo[d]imidazol-1-yl)propyl)piperidin-3-ol]
≤ 100	O[C@H]1CCCN[C@@H]1CCCn1cnc2cc(Cl)cc(N3CCCC3)c21 [Example 99, (2R,3S)-2-(3-(5-chloro-7-(pyrrolidin-1-yl)-1H-benzo[d]imidazol-1-yl)propyl)piperidin-3-ol]
100 to 500	O[C@H]1CCCN[C@@H]1CCCn1cnc2cc(Cl)cc(-c3cnc(C4CC4)s3)c21 [Example 100, (2R,3S)-2-(3-(5-chloro-7-(2-cyclopropylthiazol-5-yl)-1H-benzo[d]imidazol-1-yl)propyl)piperidin-3-ol]
≤ 100	O[C@H]1CCCN[C@@H]1CCCn1cnc2cc(Cl)cc(-c3cnn(-c4nccs4)c3)c21 [Example 101, (2R,3S)-2-(3-(5-chloro-7-(1-(thiazol-2-yl)-1H-pyrazol-4-yl)-1H-benzo[d]imidazol-1-yl)propyl)piperidin-3-ol]
100 to 500	O[C@H]1CCCN[C@@H]1CCCn1cnc2cc(Cl)cc(-c3cnn(C4COC4)c3)c21 [Example 102, (2R,3S)-2-(3-(5-chloro-7-(1-(oxetan-3-yl)-1H-pyrazol-4-yl)-1H-benzo[d]imidazol-1-yl)propyl)piperidin-3-ol]
≥ 500	O[C@H]1CCCN[C@@H]1CCCn1cnc2cc(Cl)cc(-c3csc(C4CCOCC4)n3)c21 [Example 103, (2R,3S)-2-(3-(5-chloro-7-(2-(tetrahydro-2H-pyran-4-yl)thiazol-4-yl)-1H-benzo[d]imidazol-1-yl)propyl)piperidin-3-ol]
≤ 100	O[C@H]1CCCN[C@@H]1CCCn1cnc2cc(Cl)cc(-c3ccoc3)c21 [Example 104, (2R,3S)-2-(3-(5-chloro-7-(furan-3-yl)-1H-benzo[d]imidazol-1-yl)propyl)piperidin-3-ol]
≥ 500	N#Cc1nc(-c2cc(Cl)cc3ncn(CCC[C@H]4NCCC[C@@H]4O)c23)cs1 [Example 105, 4-(5-chloro-1-(3-((2R,3S)-3-hydroxypiperidin-2-yl)propyl)-1H-benzo[d]imidazol-7-yl)thiazole-2-carbonitrile]
100 to 500	CC(C)(C)n1cc(-c2cc(Cl)cc3ncn(CCC[C@H]4NCCC[C@@H]4O)c23)cn1 [Example 106, (2R,3S)-2-(3-(7-(1-(tert-butyl)-1H-pyrazol-4-yl)-5-chloro-1H-benzo[d]imidazol-1-yl)propyl)piperidin-3-ol]
100 to 500	CC(C)CCn1cc(-c2cc(Cl)cc3ncn(CCC[C@H]4NCCC[C@@H]4O)c23)cn1 [Example 107, (2R,3S)-2-(3-(5-chloro-7-(1-isopentyl-1H-pyrazol-4-yl)-1H-benzo[d]imidazol-1-yl)propyl)piperidin-3-ol]
100 to 500	CC(C)n1cc(-c2cc(Cl)cc3ncn(CCC[C@H]4NCCC[C@@H]4O)c23)cn1 [Example 108, (2R,3S)-2-(3-(5-chloro-7-(1-isopropyl-1H-pyrazol-4-yl)-1H-benzo[d]imidazol-1-yl)propyl)piperidin-3-ol]
≤ 100	Cc1cscc1-c1cc(Cl)cc2ncn(CCC[C@H]3NCCC[C@@H]3O)c12 [Example 109, (2R,3S)-2-(3-(5-chloro-7-(4-methylthiophen-3-yl)-1H-benzo[d]imidazol-1-yl)propyl)piperidin-3-ol]
